Measurements published in PubChem BioAssay AID2060360 (Molecular Pharmacology Branch, DTP, NCI, 2025).
“And” between values parts separate entries of the source, which are not always exact repeats. Equal values may be shown once.

Test system: 282377-053-R-J1-PDC tumor spheroids, viability
Assay: Anticancer human tumor 282377-053-R-J1-PDC patient-derived colon adenocarcinoma cell line growth inhibition [TAK]
Settings: spheroids with HUVEC and MSC; for viability, T/C: stronger effect = lower value
From the text: Combinatorial screen of targeted agents with TAK-243 and ipatasertib in multi-cell type tumor spheroids
A high-throughput screen of multi-cell type tumor spheroids was designed to identify active combinations of targeted small molecules and TAK-243 or ipatasertib. Complex spheroids include a stromal component modeled by human endothelial cells (HUVEC) and fibroblasts modeled by human mesenchymal stem cells (MSCs). The concentration ranges selected for each drug and investigational agent were based upon clinically achievable concentrations if the clinical Cmax of the agent was known.
Compounds. The drugs and investigational agents: TAK-243 (785004), ipatasertib (767898), everolimus (733504), selumetinib (741078), bortezomib (756655), trametinib (758246), ixazomib (758254), vemurafenib (761431), dabrafenib (764134), sapanisertib (764658), alpelisib (765974), and copanlisib (816437), were obtained from the National Cancer Institute (NCI) Developmental Therapeutics Program Chemical Repository. The FDA-approved anticancer drug set is available from the NCI Developmental Therapeutics Program. […] The stock solutions were prepared in dimethyl sulfoxide (DMSO, Sigma-Aldrich, St. Louis, MO, cat. D2650) at 800-fold the tested concentration and stored at -70 degrees C prior to their use. All drugs and investigational agents were tested over a range starting from a high concentration at or near the clinical Cmax and decreasing in half-log increments. If the clinical Cmax for an agent had not been determined, the highest concentration tested was 10 microM.
NCI60 Cell Culture. NCI60 cell lines were obtained from the NCI Developmental Therapeutics Program Tumor Repository. For each lot of cells, the Repository performed Applied Biosystems AmpFLSTR Identifiler testing with PCR amplification to confirm consistency with the published Identifier STR profile for each cell line. Cells were kept in continuous culture for no more than 20 passages. The optimal seeding densities for each of the cell lines at each time point assessed were determined prior to performing the concentration response studies. Briefly, the NCI60 human tumor lines were grown as monolayers in RPMI 1640 medium supplemented with 10% FBS and 2 mmol/L L-glutamine.
An additional 2 lines were from the NCI60 cell line panel including melanomas, MALME-3M and SK-MEL-2. Pooled donor human umbilical vein endothelial cells (HUVEC, Lonza, cat. CC-2519) and human mesenchymal stem cells (hMSC, Lonza, cat. PT-2501) were purchased from Lonza (Walkersville, MD).
PDMR cell lines were grown in complete medium (DC medium): Dulbecco's modified Eagle's medium (DMEM)/F12 supplemented with 5% fetal bovine serum (FBS), 2 mM L-glutamine, 100 U/mL penicillin and 100 µg/ml streptomycin, 0.4 µg/ml hydrocortisone, 10 ng/ml epidermal growth factor (EGF) recombinant human protein, 24 µg/mL adenine, and 0.1 mg/mL primocin. During culture from frozen stock vials, PDMR cells were cultured in the same medium containing 10 µM Y-27632 (see Table 3). The PDCs were cultured in complete DMEM/F12 media without 10 microM Y-27632 dihydrochloride for at least two passages prior to the screen. The pooled donor HUVEC and hMSC were cultured in endothelial cell growth medium 2 (PromoCell, Heidelberg, Germany, cat. C-22011) and mesenchymal stem cell growth medium 2 (PromoCell, cat. C-28009), respectively. For all experiments, HUVEC and hMSC were used at passages </=5.
For the pre-screen, cell seeding densities were determined from a titration spanning the range from 5,000 to 313 cells per well. The mct-spheroids including 60% malignant cells, 25% HUVEC and 15% MSC dispensed as a mixture into U-bottom Ultra-Low Attachment 384-well plates (Corning, NY)
High-throughput Drug Combination Screening.
Prior to their inoculation into 384-well plates, malignant cells, HUVEC, and hMSC were removed from T flasks using TrypLE express (Thermo Fisher Scientific, cat. 12605036) and harvested by centrifugation for 5 min at 233 x g. […]
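Also: spheroids exposed to drugs for seven days before readout.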

IC50 (curve of compound) | SMILES | viability, T/C (compound 0.0316 µM) | viability, T/C (compound 0.1 µM) | viability, T/C (compound 0.316 µM) | viability, T/C (compound 1 µM) | viability, T/C (compound 0.000316 µM) | viability, T/C (compound 0.001 µM) | viability, T/C (compound 0.00316 µM) | viability, T/C (compound 0.01 µM) | other results
0.00389 µM and 0.00529 µM | CC(=O)Nc1cccc(-n2c(=O)n(C3CC3)c(=O)c3c(Nc4ccc(I)cc4F)n(C)c(=O)c(C)c32)c1 |  |  |  |  |  |  |  |  | viability, T/C (compound 94.9 pM): 98.3% and 96.1%; viability, T/C (compound 0.0003 µM): 86.1% and 84.3%; viability, T/C (compound 0.000949 µM): 70.9% and 75.1%; viability, T/C (compound 0.003 µM): 60.2% and 62.8%; viability, T/C (compound 0.00949 µM): 29.5% and 37.9%; viability, T/C (compound 0.03 µM): 13.8% and 13.7%
> 10 µM | CC(C)(C)c1nc(-c2cccc(NS(=O)(=O)c3c(F)cccc3F)c2F)c(-c2ccnc(N)n2)s1 | 85.2% and 87.2% | 84.1% and 87.2% | 78.2% and 83.8% | 78.9% and 81.5% |  |  |  |  | viability, T/C (compound 3.16 µM): 79% and 76%; viability, T/C (compound 10 µM): 69.4% and 69.9%
> 0.01 µM | CC(C)CC(NC(=O)C(Cc1ccccc1)NC(=O)c1cnccn1)B(O)O (stereo unspecified) |  |  |  |  | 99.5% and 94.6% | 109% and 101% | 100% and 97.2% | 93.2% and 81.1% | viability, T/C (compound 31.6 pM): 106% and 102%; viability, T/C (compound 0.0001 µM): 98.4% and 102%
0.0558 µM and 0.0575 µM | CC(C)CC(NC(=O)CNC(=O)c1cc(Cl)ccc1Cl)B1OC(=O)CC(CC(=O)O)(C(=O)O)O1 (stereo unspecified) | 93.3% and 95% | 5.66% and 8.2% |  |  | 97.6% and 92.8% | 95.9% and 104% | 101% and 95.3% | 97.9% and 101% | 
 | CC(C)NCC(C(=O)N1CCN(c2ncnc3c2C(C)CC3O)CC1)c1ccc(Cl)cc1 (stereo unspecified) |  |  |  |  |  |  |  |  | viability, T/C (compound 0.3 µM): 100% [middle of 10 runs]; viability, T/C (compound 0.949 µM): 92% [middle of 10 runs]; viability, T/C (compound 3 µM): 84.9% [middle of 10 runs]; viability, T/C (compound 9.49 µM): 81.9% [middle of 10 runs]; viability, T/C (compound 30 µM): 69.3% [middle of 10 runs]; IC50 (compound alone, run of 03/19/2020): > 30 µM
> 0.1 µM | CC(C)n1nc(-c2ccc3oc(N)nc3c2)c2c(N)ncnc21 | 83% and 83.3% | 49.6% and 59.1% |  |  | 99.5% and 93.2% | 99% and 92.6% | 99.7% and 91.3% | 89.3% | 
> 100 µM | CCCS(=O)(=O)Nc1ccc(F)c(C(=O)c2c[nH]c3ncc(-c4ccc(Cl)cc4)cc23)c1F |  |  | 86.4% and 86.2% | 82.3% and 82.7% |  |  |  |  | viability, T/C (compound 3.16 µM): 82.7% and 85.6%; viability, T/C (compound 10 µM): 21.3% and 27%; viability, T/C (compound 31.6 µM): 89.4% and 84.6%; viability, T/C (compound 100 µM): 75.5% and 94%
> 0.1 µM | COC1CC2CCC(C)C(O)(O2)C(=O)C(=O)N2CCCCC2C(=O)OC(C(C)CC2CCC(OCCO)C(OC)C2)CC(=O)C(C)C=C(C)C(O)C(OC)C(=O)C(C)CC(C)C=CC=CC=C1C (stereo unspecified) | 94.2% and 95.4% | 101% and 97.8% |  |  | 101% and 99.3% | 101% and 97.3% | 97.6% and 98.6% | 102% and 103% | 
> 1 µM and 0.555 µM | COc1c(OCCCN2CCOCC2)ccc2c3n(c(=NC(=O)c4cnc(N)nc4)nc12)CCN3 | 98.1% and 97.2% | 98% and 87.7% | 97.2% and 80.9% | 56.2% and 19.3% |  |  | 101% | 100% and 94.6% | 
> 10 µM | Cc1nc(NC(=O)N2CCCC2C(N)=O)sc1-c1ccnc(C(C)(C)C(F)(F)F)c1 (stereo unspecified) | 97.1% and 95.8% | 96.6% and 101% | 95.6% and 96.5% | 93.9% and 93.5% |  |  |  |  | viability, T/C (compound 3.16 µM): 89.7% and 88.6%; viability, T/C (compound 10 µM): 85.2% and 79.1%
0.867 µM and 0.611 µM | Cn1cnc2c(F)c(Nc3ccc(Br)cc3Cl)c(C(=O)NOCCO)cc21 |  |  |  |  |  |  |  |  | viability, T/C (compound 0.00949 µM): 89.8% and 85.2%; viability, T/C (compound 0.03 µM): 88.6% and 82.3%; viability, T/C (compound 0.0949 µM): 79% and 71.6%; viability, T/C (compound 0.3 µM): 76.2% and 72.7%; viability, T/C (compound 0.949 µM): 46.9% and 36.5%; viability, T/C (compound 3 µM): 21.5% and 17.7%
